Assay results: patent US12578331B2, “Monolayer of PBMCs or bone-marrow cells and uses thereof” (Mobius Biotechnology GmbH, priority 2014, dated 2026)

Tests used:
CD34+ or pSTAT5+ cells = test: Personalized chemotherapy screen in PBMC monolayer of patients with myeloproliferative neoplasm / primary myelofibrosis: viability of CD34+ or pSTAT5+ cells; assay type: cell-based, human
Method: Method: PBMCs were cultured, fixed and stained as to protocol outlined in the above examples. 384-well plates were imaged using automated confocal microscope in 4-separate channels. We stained CD34-APC, pSTAT5-PE, GFP viability maker, and a DNA binding nuclear stain. Patient material was cultured on drugs for 18 hours before the addition of the viability marker. These images contained both clonal blasts (almost all CD34+ cells that are present in the peripheral blood,) activated cells (pSTAT5+ cells,) as well as inherently healthy cells from the same donor. […] PBMCs from peripheral blood of a patient diagnosed with primary myelofibrosis were purified over a ficol destiny gradient as described above following manufacture directions. The cells were plated as to the protocol in this application in 384-well black plastic imaging plates (corning) containing 350 FDA approved drugs in DMSO at 10 uM. The cells were plated at 20.000 cell/well in 50 ul of RPMI supplemented with 5% FCS 0.1% Pen/strep. The cells were incubated overnight and a viability dye was added (fixable live/dead green, Invitrogen following manufacture directions). The cells were fixed and permeablized in PBS containing 2% formaldehyde with 0.1% Tween-x114 for 10 minute at room temperature. The solution was then replaced with PBS containing antibody against CD34 and pSTAT5 (BD biosciences) for 1 hour. The solution was then replaced with PBS containing DAPI at manufacture recommended concentration. The plates were imaged at 10× on an Operetta (PE) automated confocal microscope in four channels using band-pass filter light separation (DAPI, GFP, PE, APC). Using an image analysis pipeline, the sensitivity of the cancer cells (CD34 and pSTAT5 positive) to each drug was compared to the sensitivity on the healthy cells (NOT CD34 and pSTAT5 positive). All results were normalized to the control, DMSO alone.

[1] = test system: primary myelofibrosis (PMF)-patients; test: Clinical treatment of primary myelofibrosis patients already on Ruxolitinib with added Azacitidine; assay type: in vivo, human
Method: PBMCs from peripheral blood of a patient diagnosed with primary myelofibrosis were purified over a ficol destiny gradient as described above following manufacture directions. The cells were plated as to the protocol in this application in 384-well black plastic imaging plates (corning) containing 350 FDA approved drugs in DMSO at 10 uM. The cells were plated at 20.000 cell/well in 50 ul of RPMI supplemented with 5% FCS 0.1% Pen/strep. The cells were incubated overnight and a viability dye was added (fixable live/dead green, Invitrogen following manufacture directions). The cells were fixed and permeablized in PBS containing 2% formaldehyde with 0.1% Tween-x114 for 10 minute at room temperature. The solution was then replaced with PBS containing antibody against CD34 and pSTAT5 (BD biosciences) for 1 hour. The solution was then replaced with PBS containing DAPI at manufacture recommended concentration. The plates were imaged at 10× on an Operetta (PE) automated confocal microscope in four channels using band-pass filter light separation (DAPI, GFP, PE, APC). Using an image analysis pipeline, the sensitivity of the cancer cells (CD34 and pSTAT5 positive) to each drug was compared to the sensitivity on the healthy cells (NOT CD34 and pSTAT5 positive). All results were normalized to the control, DMSO alone. […]

## Nc1ncn([C@@H]2O[C@H](CO)[C@@H](O)[C@H]2O)c(=O)n1 [Azacitidine]
CD34+ or pSTAT5+ cells; MPN patient PBMCs, approximately 350 compounds, 18 hours on drugs, FIG. 6
  viability of cells stained for CD34 or pSTAT5: decreased the viability of cells expressing the biomarkers
CD34+ or pSTAT5+ cells; same patient, FIG. 7
  titration: viability of CD34+ cells compared to healthy cells and to DMSO: concentration dependent effects were seen
CD34+ or pSTAT5+ cells; two patients with early PMF or PMF, both treated with Ruxolitinib at the time of Pharmacoscopy, FIG. 10
  rank among compounds reducing percentage of viable cells expressing CD34 or pSTAT5: Top drug or highly enriched drug
[1]; patient undergoing treatment using Ruxolitinib, Azacitidine additionally used, FIG. 12D
  number of diseased cells in patient: significantly reduced the number of diseased cells
[1]; two PMF patients already on Ruxolitinib (Jakavi) treated with Azacitidine
  clinical response of patients: responding well
